Tested on: osteoclast precursor RAW264.7 cells
Type: cell-based
Description: FIGS. 6A and 6B relate to cAMP Assay Results. Cytotoxicity effects of the synthesized CB2 ligands. FIG. 5A: Cytotoxicity effects of compound 15. FIG. 5B: Cytotoxicity effects of compound 18. Osteoclast precursor RAW264.7 cells (1.5×10^3 cells/well) were seeded on 96-well plates. Cells were incubated with the indicated doses of compounds 15 and 18 for 48 hours. The percentage of cell survival was determined by the MTT assay. Data is the mean±SD of three experiments carried out in duplicate.
The cell-proliferation effect of our CB2 ligands on the osteoclast precursor RAW264.7 cells was assessed using MTT 3-(4,5-dimethylthiazol-2-yl)-2,5-diphenyltetrazolium bromide (Sigma, St. Louis, USA). […] Optical density was read at 540 nm and subtracted from the background at 720 nm. The effect of ligands on cell viability was expressed as percent cell viability, with vehicle-treated control cells set at 100% (Feng, R., et al., KD5170, a novel mercaptoketone-based histone deacetylase inhibitor, exerts antimyeloma effects by DNA damage and mitochondrial signaling. Mol Cancer Ther 2008, 7 (6), 1494-505).
The cytotoxicity assay was carried out to exclude that the high osteoclast formation inhibition effects were not due to the toxicity of the newly discovered compounds. The cytotoxic effects were measured by utilizing the MTT cell-viability assay. […]

Row | Structure (SMILES) | cell viability as compared to the control group (MTT)
1 | CCN(CC)c1ccc(CN(Cc2cc(OC)c(OC)c(OC)c2)S(=O)(=O)/C=C/c2ccccc2)cc1 [Compound 15, (E)-N-(4-(diethylamino)benzyl)-2-phenyl-N-(3,4,5-trimethoxybenzyl)ethene-1-sulfonamidebenzenesulfonamide] | not significantly altered
2 | CCN(CC)c1ccc(CN(Cc2cc(OC)c(OC)c(OC)c2)S(=O)(=O)c2ccc(C=O)cc2)cc1 [Compound 18, N-(4-(diethylamino)benzyl)-4-formyl-N-(3,4,5-trimethoxybenzyl)benzenesulfonamide] | not significantly altered

— patent US11059778B2, “Cannabinoid receptor CB2 ligand 4-(aminomethyl)-N, N-dialkylanilines” (UNIVERSITY OF PITTSBURGH—OF THE COMMONWEALTH SYSTEM OF …, priority 2015, dated 2021)
